The source of these data is BindingDB's records for patent US20190276450 (Abbvie, 2019).

SMILES strings stand for the structures.

Chain of Non-receptor tyrosine-protein kinase TYK2 (P29597 whole entry): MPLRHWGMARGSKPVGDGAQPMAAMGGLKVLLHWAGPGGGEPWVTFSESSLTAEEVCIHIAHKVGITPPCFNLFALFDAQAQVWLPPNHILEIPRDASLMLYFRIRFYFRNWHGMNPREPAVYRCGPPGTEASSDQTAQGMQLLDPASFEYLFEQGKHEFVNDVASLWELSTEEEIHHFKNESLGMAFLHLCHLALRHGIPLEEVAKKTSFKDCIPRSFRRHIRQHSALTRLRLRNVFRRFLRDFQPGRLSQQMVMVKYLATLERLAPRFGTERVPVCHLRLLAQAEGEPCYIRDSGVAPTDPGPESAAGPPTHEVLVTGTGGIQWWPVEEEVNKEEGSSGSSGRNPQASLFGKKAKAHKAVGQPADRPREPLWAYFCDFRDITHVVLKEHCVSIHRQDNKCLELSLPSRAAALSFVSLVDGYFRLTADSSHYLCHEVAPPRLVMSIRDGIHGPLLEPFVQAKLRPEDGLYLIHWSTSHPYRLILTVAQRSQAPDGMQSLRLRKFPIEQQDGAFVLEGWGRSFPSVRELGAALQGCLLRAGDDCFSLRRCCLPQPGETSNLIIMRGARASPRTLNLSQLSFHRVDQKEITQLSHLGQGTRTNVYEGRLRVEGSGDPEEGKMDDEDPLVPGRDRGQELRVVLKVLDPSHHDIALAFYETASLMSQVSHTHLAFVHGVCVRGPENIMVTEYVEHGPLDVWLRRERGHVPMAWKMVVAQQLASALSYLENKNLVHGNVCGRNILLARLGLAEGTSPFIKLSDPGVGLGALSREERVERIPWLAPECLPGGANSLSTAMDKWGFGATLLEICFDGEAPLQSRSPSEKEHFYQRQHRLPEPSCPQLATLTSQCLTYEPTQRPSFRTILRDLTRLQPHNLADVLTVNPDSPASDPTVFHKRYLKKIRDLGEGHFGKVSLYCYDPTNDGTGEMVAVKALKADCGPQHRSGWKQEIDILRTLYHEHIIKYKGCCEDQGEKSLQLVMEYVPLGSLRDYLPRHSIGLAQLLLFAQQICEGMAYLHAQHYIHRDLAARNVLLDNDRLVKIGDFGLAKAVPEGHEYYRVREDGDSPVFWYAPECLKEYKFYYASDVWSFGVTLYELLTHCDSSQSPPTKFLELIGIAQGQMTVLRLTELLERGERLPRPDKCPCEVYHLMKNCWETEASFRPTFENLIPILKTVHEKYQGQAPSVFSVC

This experiment deals with Non-receptor tyrosine-protein kinase TYK2 (Homo sapiens, UniProt P29597). Put plainly: TYK2 (TYK2/JAK2 PSTAT4 T-BLAST) Alpha Screen Assay. The procedure:
IL-12 is known to transduce its signal through IL-12 receptor via Jak2 and/or Tyk2. For that reason, the activity against Tyk2/Jak2 was measured by determining the inhibition of IL-12 induced phosphorylation of STAT4 in T-blast cells. […] See, e.g., Sohn et al., J. Immunology (2013) 2205-2216.
The EC50 is the concentration at which the effect is half-maximal. As for `CO[C@]1(c2cccc(-c3cn(C)c4cnc(NC(C)=O)cc34)n2)CCOC1` [US20190276450, Example 16a], the EC50 stood at 1590 nM.

For `CO[C@@]1(c2cccc(-c3cn(C4(C)COC4)c4cnc(NC(C)=O)cc34)n2)CCOC1` [US20190276450, Example 18], the midpoint of the response, the EC50, lay at 494 nM.

Regarding `CO[C@]1(c2cc(C#N)cc(-c3cn(C)c4cnc(NC(C)=O)cc34)n2)CCOC1` [US20190276450, Example 2.5], the EC50 came out at 694 nM.

For `COc1cc(-c2cn([C@@H]3CCOC3)c3cnc(NC(C)=O)cc23)nc([C@@]2(OC)CCOC2)c1` [US20190276450, Example 5.3], the EC50 amounted to 561 nM.

For `COCc1cc(-c2cn(C)c3cnc(NC(C)=O)cc23)nc([C@@]2(OC)CCOC2)c1` [US20190276450, Example 2.4], the EC50 stood at 699 nM.

`CO[C@@]1(c2cccc(-c3cn([C@H]4C[C@@H](C#N)C4)c4cnc(NC(C)=O)cc34)n2)CCOC1` [US20190276450, Example 17a] came in with an EC50 of 477 nM.

With `COc1cc(-c2cn(C)c3cnc(NC(C)=O)cc23)nc(C2(O)COC2)c1` [US20190276450, Example 14.2], the EC50 worked out at 673 nM.

For `Cn1cc(-c2cccc(C3COC3)n2)c2cc(NC(N)=O)ncc21` [US20190276450, Example 13], the EC50 worked out at 492 nM.

In turn, `CO[C@]1(c2cccc(-c3cn(C)c4cnc(NC(N)=O)cc34)n2)CCOC1` [US20190276450, Example 1a] displayed an EC50 of 468 nM.

For `CC(=O)Nc1cc2c(-c3cccc([C@@]4(CO)CCOC4)n3)cn(C)c2cn1` [US20190276450, Example 21a], the EC50 was 1310 nM.

The compound `CO[C@]1(c2cc(C(F)F)cc(-c3cn(C)c4cnc(NC(C)=O)cc34)n2)CCOC1` [US20190276450, Example 2.7] had an EC50 of 254 nM.

The compound `COc1cc(-c2cn(C3COC3)c3cnc(NC(C)=O)cc23)nc([C@@]2(OC)CCOC2)c1` [US20190276450, Example 4.4] displayed an EC50 of 353 nM.

Consider `CO[C@]1(c2cncc(-c3cn(C)c4cnc(NC(C)=O)cc34)n2)CCOC1` [US20190276450, Example 2.9], for which the EC50 came out at 716 nM.

`CO[C@@]1(c2cc(C(F)F)cc(-c3cn([C@H]4C[C@@H](C#N)C4)c4cnc(NC(C)=O)cc34)n2)CCOC1` [US20190276450, Example 17.3]: a half-maximal response (EC50) required 8 nM.

`COCc1cc(-c2nn(C)c3cnc(NC(C)=O)cc23)nc([C@]2(OC)CCOC2)c1` [US20190276450, Example 23]: the EC50 was 330 nM.

Compound `CC[C@]1(c2cccc(-c3cn(C)c4cnc(NC(N)=O)cc34)n2)CCOC1` [US20190276450, Example 3.3] came in with an EC50 of 388 nM.

`COc1cc(-c2cn(C)c3cnc(NC(C)=O)cc23)nc([C@@]2(OC)CCOC2)c1` [US20190276450, Example 20a] displayed an EC50 of 906 nM.

`CC(=O)Nc1cc2c(-c3cc(OC(C)C)cc(C4(O)COC4)n3)cn(C)c2cn1` [US20190276450, Example 14.3] gave an EC50 of 339 nM.

Compound `CO[C@@]1(c2cc(OCC#N)cc(-c3cn(C)c4cnc(NC(C)=O)cc34)n2)CCOC1` [US20190276450, Example 6.3] had an EC50 of 352 nM.

For the compound `CO[C@]1(c2cc(O[C@H]3C[C@H](O)C3)cc(-c3cn(C)c4cnc(NC(C)=O)cc34)n2)CCOC1` [US20190276450, Example 11a], the EC50 amounted to 496 nM.

Take `NC(=O)Nc1cc2c(-c3cccc(C4(O)COC4)n3)cn([C@H]3CCOC3)c2cn1` [US20190276450, Example 15.2]: the EC50 worked out at 1840 nM.

`CNC(=O)Nc1cc2c(-c3cccc([C@]4(OC)CCOC4)n3)cn(C)c2cn1` [US20190276450, Example 1a.2] came in with an EC50 of 288 nM.

In turn, `COC1(c2cccc(-c3c[nH]c4cnc(NC(C)=O)cc34)n2)CCOC1` (configuration not stated) [US20190276450, Example 16-NH] came in with an EC50 of 3140 nM.

Turning to `CO[C@@]1(c2cc(C#N)cc(-c3cn([C@H]4CC4(F)F)c4cnc(NC(N)=O)cc34)n2)CCOC1` [US20190276450, Example 12a.2], the EC50 worked out at 578 nM.

As to `CO[C@@]1(c2cccc(-c3c[nH]c4cnc(NC(C)=O)cc34)n2)CCOC1` [US20190276450, Example 17-NH], the EC50 was 1520 nM.

The compound `CO[C@]1(c2cc(C(F)F)cc(-c3cn(C4COC4)c4cnc(NC(C)=O)cc34)n2)CCOC1` [US20190276450, Example 4.2] yielded an EC50 of 616 nM.

On to `CO[C@@]1(c2cccc(-c3cn(C)c4cnc(NC(C)=O)cc34)n2)CCOC1` [US20190276450, Example 16], for which a half-maximal response (EC50) required 310 nM.

Turning to `CO[C@]1(c2cc(C#N)cc(-c3cn(C)c4cnc(NC(N)=O)cc34)n2)CCOC1` [US20190276450, Example 12.2], the midpoint of the response, the EC50, lay at 551 nM.

`CO[C@@]1(c2cccc(-c3cn(C4(C)COC4)c4cnc(NC(N)=O)cc34)n2)CCOC1` [US20190276450, Example 19] gave a 50% effective concentration (EC50) of 198 nM.

In the case of `CO[C@@]1(c2cccc(-c3cn(C4(F)COC4)c4cnc(NC(C)=O)cc34)n2)CCOC1` [US20190276450, Example 18a], it took 537 nM to reach a half-maximal effect (EC50).

`COc1cc(-c2cn(C)c3cnc(NC(C)=O)cc23)nc([C@@]2(CO)CCOC2)c1` [US20190276450, Example 22.7] showed an EC50 of 3100 nM.

In turn, `CO[C@@]1(c2cc(C#N)cc(-c3cn(C)c4cnc(NC(C)=O)cc34)n2)CCOC1` [US20190276450, Example 2.6] registered an EC50 of 268 nM.

Take `CO[C@@]1(c2cc(O[C@H]3C[C@@H](O)C3)cc(-c3cn(C)c4cnc(NC(C)=O)cc34)n2)CCOC1` [US20190276450, Example 11.2]: the EC50 turned out to be 124 nM.

With `CO[C@]1(c2cc(C#N)cc(-c3cn([C@H]4CC4(F)F)c4cnc(NC(C)=O)cc34)n2)CCOC1` [US20190276450, Example 2a.4], the EC50 turned out to be 2360 nM.

The compound `CO[C@@]1(c2cncc(-c3cn(C)c4cnc(NC(C)=O)cc34)n2)CCOC1` [US20190276450, Example 2.10] displayed an EC50 of 368 nM.

Compound `CO[C@@]1(c2cccc(-c3cn([C@H]4CC4(F)F)c4cnc(NC(N)=O)cc34)n2)CCOC1` [US20190276450, Example 1.3] returned an EC50 of 2030 nM.

`CO[C@@]1(c2cc(C#N)cc(-c3cn([C@H]4CC4(F)F)c4cnc(NC(C)=O)cc34)n2)CCOC1` [US20190276450, Example 2a.5] returned an EC50 of 1590 nM.

On to `COCCOc1cc(-c2cn(C)c3cnc(NC(C)=O)cc23)nc([C@@]2(CO)CCOC2)c1` [US20190276450, Example 22.9], for which the EC50 was determined as 1320 nM.

For `COCc1cc(-c2cn(C)c3cnc(NC(N)=O)cc23)nc([C@@]2(OC)CCOC2)c1` [US20190276450, Example 12.4], the EC50 was found to be 319 nM.

With `COCc1cc(-c2c[nH]c3cnc(NC(C)=O)cc23)nc([C@]2(OC)CCOC2)c1` [US20190276450, Example 2-NH], the EC50 worked out at 310 nM.

In turn, `CC[C@]1(c2cccc(-c3cn(C)c4cnc(NC(C)=O)cc34)n2)CCOC1` [US20190276450, Example 2.3a] showed an EC50 of 2220 nM.

In the case of `CO[C@]1(c2cc(C#N)cc(-c3cn([C@@H]4CC4(F)F)c4cnc(NC(C)=O)cc34)n2)CCOC1` [US20190276450, Example 2a.2], the EC50 was found to be 749 nM.
